Experimental data: patent US20230416679A1, “METHODS AND COMPOSITIONS FOR IN-VITRO AUGMENTATION OF MILK PRODUCTION FROM MAMMARY EPITHELIAL CELLS” (Wilk Technologies International Ltd., priority 2021, published 2023)

Assays:
[1] = test system: primary culture of bovine mammary epithelial cells; test: Milk protein (casein, whey) secretion to the medium (HPLC-UV); type: cell-based
Description: For all the experiments, primary culture of bovine mammary epithelial cells were used. The cells were isolated from 3 lactating Holstein cows according to an established protocol (Cohen et al., 2015 supra). Study protocols were in compliance with the regulations of the Israeli Ministry of Health, under the supervision of the Department for Control of Animal Products, State of Israel Ministry of Agriculture Rural Development Veterinary Services and Animal Health. Certificate Nu: #80. After isolation, 60,000 cells were plated in a 35-mm plastic dish on glass cover slips for all florescence staining experiments. For production analysis, 150,000 cells were plated in a 60-mm plastic dish for lipids, protein, and lactose extraction. Oxygen consumption assay was performed by using Seahorse system (Agilent, USA); cells were plated in 24-well plate (20,000 cells/well) and incubated with DMEM/F12, with 0.15% (v/v) bovine serum albumin and insulin (1 μg/ml), hydrocortisone (0.5 μg/ml) and prolactin (1 μg/ml) for 48 h to induce lactogenic response. Then cells were treated with three different P. lentiscus extracts: ethyl acetate, hexane and chloroform, according to the protocol that was used before (Azaizeh et al., 2013). The extracts were diluted with DMEM/F12 medium supplemented with Dimethyl Sulfoxide (DMSO) in a final concentration of 0.1% for better dissolution of the extractions. Oleic acid was added to the treatment medium at a final concentration of […] to increase fat (triglycerol) synthesis to better enable the visualization of intracellular lipid droplets. The treatment was given in the presence of insulin (1 μg/ml), hydrocortisone (0.5 μg/ml) and prolactin (1 μg/ml). After 24 h of incubation, medium was collected for triglyceride and phospholipid quantification, and cells were harvested for cell counting, lipid, lactose or protein extraction. Otherwise, cells were fixed for florescence staining or plates taken to seahorse for oxygen consumption rate measurement. After treatment, 0.5 ml cultured medium was collected to HPLC equipped with UV detector. Protein content was determined in 220 nm wavelength by C-18 reverse phase column. Identification and quantification were determined by constructing a calibration curve of external standard of known protein concentrations which dissolved in a 50 mM phosphate buffer (PH=6.7). Identification for α casein, β casein and α lactalbumin were qualified as caseins (α and β casein) and whey (a lactalbumin) protein. Positive values indicate increased protein content whereas negative values indicate decreased protein content.

[2] = test system: primary culture of bovine mammary epithelial cells; test: Intracellular lipid droplets fluorescence staining (Nile red / DAPI); type: cell-based; details: gallic acid added to MEC primary culture (FIG. 6)
Description: For all the experiments, primary culture of bovine mammary epithelial cells were used. The cells were isolated from 3 lactating Holstein cows according to an established protocol (Cohen et al., 2015 supra). Study protocols were in compliance with the regulations of the Israeli Ministry of Health, under the supervision of the Department for Control of Animal Products, State of Israel Ministry of Agriculture Rural Development Veterinary Services and Animal Health. Certificate Nu: #80. After isolation, 60,000 cells were plated in a 35-mm plastic dish on glass cover slips for all florescence staining experiments. […] After 24 h of incubation, medium was collected for triglyceride and phospholipid quantification, and cells were harvested for cell counting, lipid, lactose or protein extraction. […] Cover slips were then rinsed four times with PBS and mounted with fluorescence mounting medium (Dako, North America Inc., Carpinteria, CA). Slides were visualized with an Olympus BX40 fluorescence microscope equipped with an Olympus DP73 digital camera using CellSens Entry software (version 1.7, Olympus). Lipid droplet diameter was measured using ImageJ software (version 1.48, NIH, Bethesda, MD). […] The effect of oleic acid on accumulation of fat in primary culture of mammary epithelial cells was determined using Nile red staining (red). […]

Compound: O=C(O)c1cc(O)c(O)c(O)c1 [gallic acid]
- protein secretion compared to control ([1]; 2 ppm, P=0.98): did not change
- size of the intracellular lipid droplets [2]: increased

Compound: O=c1c(O)c(-c2cc(O)c(O)c(O)c2)oc2cc(O)cc(O)c12 [myricetin, Myricetin]
- casein secretion, higher than control ([1]; 1 ppm, P<0.05, FIG. 7C): 126%
- whey secretion, higher than control ([1]; 1 ppm, P=0.05, FIG. 7D): 124%
- increase of casein and whey secretion compared with control ([1]; between about 0.5 ppm and about 2.5 ppm, for example 1 ppm): 30%
